The values that follow are results of earlier work, collected in patent publication US8685965B2, “CGRP receptor antagonists” (Merck Sharp & Dohme Corp., priority 2008, dated 2014).

Ends that are not written are not given here.

The test system of data set [1] is acute attacks of migraine. Conditions: clinical trials; Olesen et al. 2004.
Data set [2] relates to headache induced by CGRP infusion. The following applies: control group; Petersen et al. 2005.
Data set [3] relates to facial blood flow. Conditions: marmoset; Doods et al. 2000.
Data set [4] deals with middle meningeal artery. Conditions: rats, prior administration; Williamson et al. 1997.
For data set [5], the system named is facial blood flow. Conditions: rat; Escott et al. 1995.

For `NCCCC[C@H](NC(=O)[C@@H](Cc1cc(Br)c(O)c(Br)c1)NC(=O)N1CCC(N2Cc3ccccc3NC2=O)CC1)C(=O)N1CCN(c2ccncc2)CC1` [BIBN4096BS], the “efficacy in treating acute attacks of migraine” value in data set [1] is listed as “effective in treating acute attacks of migraine”. Also, the “prevention of headache induced by CGRP infusion” value in data set [2] is reported as “able to prevent headache induced by CGRP infusion”. The “effect on increase of facial blood flow after electrical stimulation of the trigeminal ganglion” value in data set [3] is given as “could be blocked”.
Take “CGRP(8-37): a peptide CGRP antagonist; fragment of CGRP that lacks seven N-terminal amino acid residues (VTHRLAGLLSRSGGVVKNNFVPTNVGSKAF; ends and bridges not checked; UniProt P06881 90-119, looked up, fragment)”: in data set [4], the “effect on increase of middle meningeal artery diameter after electrical stimulation of the dura mater” value was “blocked”. The “effect on increase of facial blood flow after trigeminal ganglion stimulation” value in data set [5] is reported as “inhibited”.
